According to the NIST ThermoML archive (doi:10.1016/j.fluid.2012.05.006):
± gives the expanded uncertainty stated by the source.

Assay: activity coefficient (dimensionless); of the first substance listed, at infinite dilution; xn = mol fraction of the nth substance listed
Conditions: Liquid, Chromatography, x1 = 0

Row | activity coefficient (303.15 K) | activity coefficient (313.15 K) | activity coefficient (323.15 K) | activity coefficient (333.15 K) | activity coefficient (343.15 K) | activity coefficient (353.15 K) | activity coefficient (363.15 K) | activity coefficient (303.15 K, 101 kPa) | activity coefficient (313.15 K, 101 kPa) | activity coefficient (323.15 K, 101 kPa) | activity coefficient (333.15 K, 101 kPa) | activity coefficient (343.15 K, 101 kPa) | activity coefficient (353.15 K, 101 kPa) | activity coefficient (363.15 K, 101 kPa) | Compound
1 | 18.5 ± 0.66 | 16.8 ± 0.6 | 15.4 ± 0.55 | 14.1 ± 0.51 | 13.3 ± 0.48 | 12.3 ± 0.44 | 11.4 ± 0.41 |  |  |  |  |  |  |  | CC(C)CC(C)(C)C [2,2,4-trimethylpentane] + CCCCCCCCn1cc[n+](C)c1.O=[N+]([O-])[O-]
2 | 0.6 ± 0.09 | 0.59 ± 0.09 | 0.58 ± 0.09 | 0.57 ± 0.09 | 0.56 ± 0.09 | 0.55 ± 0.09 | 0.54 ± 0.09 |  |  |  |  |  |  |  | CC#N [acetonitrile] + CCCCCCCCn1cc[n+](C)c1.O=[N+]([O-])[O-]
3 | 0.94 ± 0.09 | 0.96 ± 0.09 | 0.97 ± 0.09 | 0.98 ± 0.09 | 0.99 ± 0.09 | 1 ± 0.09 | 1.01 ± 0.09 |  |  |  |  |  |  |  | c1ccccc1 [benzene] + CCCCCCCCn1cc[n+](C)c1.O=[N+]([O-])[O-]
4 | 6.52 ± 0.23 | 6.27 ± 0.22 | 5.89 ± 0.21 | 5.58 ± 0.2 | 5.27 ± 0.19 | 5.09 ± 0.19 | 4.93 ± 0.18 |  |  |  |  |  |  |  | C1CCCCC1 [cyclohexane] + CCCCCCCCn1cc[n+](C)c1.O=[N+]([O-])[O-]
5 | 0.32 ± 0.09 | 0.33 ± 0.09 | 0.34 ± 0.09 | 0.36 ± 0.09 | 0.37 ± 0.09 | 0.38 ± 0.09 | 0.39 ± 0.09 |  |  |  |  |  |  |  | ClCCl [dichloromethane] + CCCCCCCCn1cc[n+](C)c1.O=[N+]([O-])[O-]
6 | 0.38 ± 0.09 | 0.37 ± 0.09 | 0.35 ± 0.09 | 0.34 ± 0.09 | 0.33 ± 0.09 | 0.31 ± 0.09 | 0.3 ± 0.09 |  |  |  |  |  |  |  | CCO [ethanol] + CCCCCCCCn1cc[n+](C)c1.O=[N+]([O-])[O-]
7 | 1.65 ± 0.1 | 1.64 ± 0.1 | 1.63 ± 0.1 | 1.63 ± 0.1 | 1.62 ± 0.1 | 1.61 ± 0.1 | 1.6 ± 0.1 |  |  |  |  |  |  |  | CCOC(C)=O [ethyl acetate] + CCCCCCCCn1cc[n+](C)c1.O=[N+]([O-])[O-]
8 |  |  |  |  |  |  |  | 2.05 ± 0.11 | 2.06 ± 0.11 | 2.06 ± 0.11 | 2.07 ± 0.11 | 2.07 ± 0.11 | 2.08 ± 0.11 | 2.09 ± 0.11 | CCc1ccccc1 [ethylbenzene] + CCCCCCCCn1cc[n+](C)c1.O=[N+]([O-])[O-]
9 | 15.4 ± 0.55 | 14.3 ± 0.51 | 13.3 ± 0.48 | 12.3 ± 0.44 | 11.8 ± 0.42 | 11.2 ± 0.4 | 10.4 ± 0.37 |  |  |  |  |  |  |  | CCCCCCC [heptane] + CCCCCCCCn1cc[n+](C)c1.O=[N+]([O-])[O-]
10 | 12.1 ± 0.43 | 11.2 ± 0.4 | 10.5 ± 0.37 | 9.74 ± 0.35 | 9.05 ± 0.32 | 8.5 ± 0.3 | 8.16 ± 0.29 |  |  |  |  |  |  |  | CCCCCC [hexane] + CCCCCCCCn1cc[n+](C)c1.O=[N+]([O-])[O-]
11 | 0.26 ± 0.09 | 0.26 ± 0.09 | 0.25 ± 0.09 | 0.24 ± 0.09 | 0.23 ± 0.09 | 0.23 ± 0.09 | 0.22 ± 0.09 |  |  |  |  |  |  |  | CO [methanol] + CCCCCCCCn1cc[n+](C)c1.O=[N+]([O-])[O-]
12 | 7.91 ± 0.28 | 7.7 ± 0.27 | 7.37 ± 0.26 | 7.11 ± 0.25 | 6.81 ± 0.24 | 6.62 ± 0.23 | 6.41 ± 0.23 |  |  |  |  |  |  |  | CC1CCCCC1 [methylcyclohexane] + CCCCCCCCn1cc[n+](C)c1.O=[N+]([O-])[O-]
13 | 23.1 ± 0.83 | 21.8 ± 0.78 | 20.9 ± 0.75 | 20.1 ± 0.72 | 19.6 ± 0.7 | 18.6 ± 0.67 | 18.2 ± 0.65 |  |  |  |  |  |  |  | CCCCCCCCC [nonane] + CCCCCCCCn1cc[n+](C)c1.O=[N+]([O-])[O-]
14 | 17.9 ± 0.64 | 17 ± 0.61 | 16.2 ± 0.58 | 15.7 ± 0.56 | 15.2 ± 0.54 | 14.8 ± 0.53 | 14.1 ± 0.5 |  |  |  |  |  |  |  | CCCCCCCC [octane] + CCCCCCCCn1cc[n+](C)c1.O=[N+]([O-])[O-]
15 | 8.5 ± 0.3 | 7.8 ± 0.28 | 7.45 ± 0.26 | 6.94 ± 0.25 | 6.46 ± 0.23 | 6.19 ± 0.22 | 5.77 ± 0.21 |  |  |  |  |  |  |  | CCCCC [pentane] + CCCCCCCCn1cc[n+](C)c1.O=[N+]([O-])[O-]
16 |  | 0.41 ± 0.09 | 0.4 ± 0.09 | 0.38 ± 0.09 | 0.37 ± 0.09 | 0.36 ± 0.09 | 0.35 ± 0.09 |  |  |  |  |  |  |  | CCCO [propan-1-ol] + CCCCCCCCn1cc[n+](C)c1.O=[N+]([O-])[O-]
17 | 0.44 ± 0.09 | 0.43 ± 0.09 | 0.43 ± 0.09 | 0.42 ± 0.09 | 0.41 ± 0.09 | 0.41 ± 0.09 | 0.4 ± 0.09 |  |  |  |  |  |  |  | CC(C)O [propan-2-ol] + CCCCCCCCn1cc[n+](C)c1.O=[N+]([O-])[O-]
18 | 1.03 ± 0.09 | 1.02 ± 0.09 | 1.01 ± 0.09 | 1 ± 0.09 | 0.99 ± 0.09 | 0.98 ± 0.09 | 0.97 ± 0.09 |  |  |  |  |  |  |  | C1CCOC1 [tetrahydrofuran] + CCCCCCCCn1cc[n+](C)c1.O=[N+]([O-])[O-]
19 | 0.17 | 0.18 | 0.19 ± 0.09 | 0.2 ± 0.09 | 0.21 ± 0.09 | 0.22 ± 0.09 | 0.23 ± 0.09 |  |  |  |  |  |  |  | ClC(Cl)Cl [trichloromethane] + CCCCCCCCn1cc[n+](C)c1.O=[N+]([O-])[O-]

Row | Compound | activity coefficient (303.15 K) | activity coefficient (313.15 K) | activity coefficient (323.15 K) | activity coefficient (333.15 K) | activity coefficient (343.15 K) | activity coefficient (353.15 K) | activity coefficient (363.15 K) | activity coefficient (303.15 K, 101 kPa) | activity coefficient (313.15 K, 101 kPa) | activity coefficient (323.15 K, 101 kPa) | activity coefficient (333.15 K, 101 kPa) | activity coefficient (343.15 K, 101 kPa) | activity coefficient (353.15 K, 101 kPa) | activity coefficient (363.15 K, 101 kPa)
20 | Cc1ccccc1C [1,2-dimethylbenzene] + CCCCCCCCn1cc[n+](C)c1.O=[N+]([O-])[O-] | 1.75 ± 0.1 | 1.77 ± 0.1 | 1.79 ± 0.11 | 1.8 ± 0.11 | 1.82 ± 0.11 | 1.84 ± 0.11 | 1.85 ± 0.11 |  |  |  |  |  |  | 
21 | Cc1cccc(C)c1 [1,3-dimethylbenzene] + CCCCCCCCn1cc[n+](C)c1.O=[N+]([O-])[O-] | 2.02 ± 0.11 | 2.03 ± 0.11 | 2.05 ± 0.11 | 2.06 ± 0.11 | 2.07 ± 0.11 | 2.08 ± 0.11 | 2.09 ± 0.11 |  |  |  |  |  |  | 
22 | Cc1ccc(C)cc1 [1,4-dimethylbenzene] + CCCCCCCCn1cc[n+](C)c1.O=[N+]([O-])[O-] | 1.98 ± 0.11 | 1.99 ± 0.11 | 2 ± 0.11 | 2.01 ± 0.11 | 2.01 ± 0.11 | 2.02 ± 0.11 | 2.03 ± 0.11 |  |  |  |  |  |  | 
23 | CC(C)=O [acetone] + CCCCCCCCn1cc[n+](C)c1.O=[N+]([O-])[O-] | 0.84 ± 0.09 | 0.83 ± 0.09 | 0.81 ± 0.09 | 0.79 ± 0.09 | 0.77 ± 0.09 | 0.76 ± 0.09 | 0.74 ± 0.09 |  |  |  |  |  |  | 
24 | ClC(Cl)(Cl)Cl [tetrachloromethane] + CCCCCCCCn1cc[n+](C)c1.O=[N+]([O-])[O-] | 1.16 ± 0.09 | 1.2 ± 0.09 | 1.24 ± 0.09 | 1.27 ± 0.1 | 1.3 ± 0.1 | 1.35 ± 0.1 | 1.39 ± 0.1 |  |  |  |  |  |  | 
25 | Cc1ccccc1 [toluene] + CCCCCCCCn1cc[n+](C)c1.O=[N+]([O-])[O-] | 1.41 ± 0.1 | 1.41 ± 0.1 | 1.42 ± 0.1 | 1.43 ± 0.1 | 1.44 ± 0.1 | 1.45 ± 0.1 | 1.46 ± 0.1 |  |  |  |  |  |  | 
